{"source": "patent US20030216458A1", "about": "“Combination therapy for the treatment of migraine” (priority 1999, published 2003)", "origin": "cited, not measured here", "details": "anaesthetized dog", "data": [{"compound": "CNS(=O)(=O)Cc1ccc2[nH]cc(CCN(C)C)c2c1", "note": "[Sumatriptan]", "values": [{"measurement": "effect on carotid vascular resistance", "value": "selective increase in carotid vascular resistance"}]}]}
